Test [1] has as its target T1, 2871 receptor (Homo sapiens, UniProt Q9BY21).
T1 construct: encodes a full length 2871 receptor protein; myc (on only one of the two constructs made); expressed in transfected cells
The test can be described thus: FLIPR calcium mobilization screening of 2871 receptor-transfected cells. The conditions noted are these: HEK293G16 cells stably transfected with 2871 receptor protein; for calcium mobilization response: concentration response; for EC50: calcium mobilization. The test is classed as cell-based. The method, then:
The 2871 receptor proteins were expressed in either human embryonic kidney 293 (HEK293) cells or CHO cells, both of which were stably transfected with cDNA encoding the promiscuous G-protein Gal6. A pEF6 vector (invitrogene) including a cDNA of 2871 comprising only the open reading frame (ORF) or 5′-myc tagged ORF was constructed. Cells were transfected with individual construct by lipofectamine (GIBCO) and selected in the presence of 20 ug/ml Blasticidine. After 3 weeks of selection, drug resistant cells were subcloned to obtain individual clones by limited dilution. To isolate cell lines stably expressing the 2871 receptor protein, about 48 clones were typically selected and analyzed. The expression level for myc-tagged 2871 on individual clones was evaluated by using anti-myc Ab staining and FACScan analysis. The expression level for un-tagged 2871 was evaluated by mRNA analysis using standard Taqman techniques and comparing with mRNA expression of myc-tagged 2871 clones. HEK293G16 or CHOG16 cells transfected with the vector alone serve as negative controls. The clones with the highest expression of 2871 as well as good morphology and growth were used for the screening experiments.
The functional screening procedure involves the use of transfected mammalian cells (CHO, HEK293, RBL, L1.2 etc.) containing a cDNA encoding the 2871 peptides to express the receptor on the cell surface. The cells were loaded with a calcium dependent dye such as fura 2 that produces a fluorescent signal when bound to calcium.
Cells were bound to a receptor agonist, such as Ap6A. Any change in fluorescent signal was measured over a defined period of time using a Fluorescence Imaging Plate Reader (FLIPR) (See Sullivan E, et al. Measurement of [Ca^2+] using the Fluorometric Imaging Plate Reader (FLIPR). Methods Mol Biol 1999;114:125-133.)
Cells were exposed to putative ligands and/or modulators and evaluated for agonist induced calcium mobilization. Cell lines transfected with vector alone served as negative controls in the same screening procedures for agents initially identified as putative ligands and/or modulators.
(§1) 2871 receptor-transfectants (IIEK293 (60,000 cells/well) or CHO cells (30,000 cells/well)) were seeded into poly-D-lysine-coated 96-well black-wall, clear-bottom microtiter plates 24 hours prior to assay. Cells were loaded for 1 hour with 2 μM Fluo-3-AM fluorescent indicator dye (Molecular Probes) in assay buffer (Hank's balanced salt solution, 10 mM HEPES, 0.1% BSA, 2.5 mM probenecid), washed three times with assay buffer, and then applied to FLIPR for analysis.
Bio-active lipids were screened at final concentration of 200 nM and 1 μM. Nucleotides were screened at final concentration of 1 μM and 2 μM. The ratio of net change (maximum subtracting minimum) in fluorescence over baseline was used to determine agonist response. Positive responses were confirmed by checking original raw responsive curve.
Concentration response curve data were fitted by Graphpad Prism 2.1 (Graphpad software, Inc., San Diego).
(In general: Calcium flux is commonly read through the fluorescence of an indicator in the cells.)

Test [2] addresses T1, 2871 receptor. The test can be described thus: Desensitization of calcium mobilization response by sequential adenosine nucleotide treatment (FLIPR). The test is classed as cell-based. The following applies: for desensitization of calcium mobilization response to subsequent adenosine nucleotide treatment: additional treatment five to six minutes after initial dose. The protocol:
as §1
Furthermore, calcium mobilization response was selectively desensitized treatment with adenosine nucleotide was followed by subsequent treatment with additional adenosine nucleotide. Initial treatment with adenosine nucleotide was followed by additional treatment five to six minutes after initial dose. Treatment and data analysis were as described supra.

T1 sequence (Q9BY21 whole entry): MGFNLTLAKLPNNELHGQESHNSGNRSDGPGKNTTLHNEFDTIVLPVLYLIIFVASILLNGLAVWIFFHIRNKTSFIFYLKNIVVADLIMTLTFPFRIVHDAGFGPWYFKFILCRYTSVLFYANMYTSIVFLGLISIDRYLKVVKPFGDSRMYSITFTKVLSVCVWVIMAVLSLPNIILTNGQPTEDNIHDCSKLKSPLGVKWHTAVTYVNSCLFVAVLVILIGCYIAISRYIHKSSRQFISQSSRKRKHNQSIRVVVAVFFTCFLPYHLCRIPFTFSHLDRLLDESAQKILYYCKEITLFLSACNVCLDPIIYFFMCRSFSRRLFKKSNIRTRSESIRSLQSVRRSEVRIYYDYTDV

Consider `Nc1ncnc2c1ncn2[C@@H]1O[C@H](COP(=O)(O)OP(=O)(O)O[C@H]2O[C@H](CO)[C@@H](O)[C@H](O)[C@@H]2O)[C@@H](O)[C@H]1O` [ADP-mannose], for which the calcium mobilization response result in test [1] is “dose-dependent”.

The term EC50 denotes the midpoint of the concentration-response curve. Turning to `Nc1ncnc2c1ncn2C1OC(COP(=O)(O)OP(=O)(O)OCC2OC(O)C(O)C2O)C(O)C1O` (stereo not shown) [ADP-ribose, adenosine di-phosphate-ribose], in test [1], the calcium mobilization response entry is given as “dose-dependent” and the half-maximal effective concentration (EC50) lay within 400 to 800 nM.

For `Nc1ncnc2c1ncn2[C@@H]1O[C@H](COP(=O)(O)O)[C@@H](O)[C@H]1O` [AMP, adenosine monophosphate], in test [1], the calcium mobilization response entry is “dose-dependent” and the EC50 was in the range of 500 to 800 nM. In addition, the “desensitization of calcium mobilization response to subsequent adenosine nucleotide treatment” value in test [2] is listed as “conferred desensitization to subsequent AMP treatment”.

For `Nc1ncnc2c1ncn2[C@@H]1O[C@H](COP(=O)(O)OP(=O)(O)OC[C@H]2O[C@@H](n3cnc4c(N)ncnc43)[C@H](O)[C@@H]2O)[C@@H](O)[C@H]1O` [AP2A], the calcium mobilization response result in test [1] was “dose-dependent”.

Regarding `Nc1ncnc2c1ncn2[C@@H]1O[C@H](COP(=O)(O)OP(=O)(O)OP(=O)(O)OC[C@H]2O[C@@H](n3cnc4c(N)ncnc43)[C@H](O)[C@@H]2O)[C@@H](O)[C@H]1O` [AP3A], the calcium mobilization response result in test [1] is on record as “dose-dependent”.

As to di-adenosine hexaphosphate [AP6A], in test [1], the calcium mobilization response entry is reported as “dose-dependent” and the 50% effective concentration (EC50) lay within 200 to 400 nM. The “desensitization of calcium mobilization response to subsequent adenosine nucleotide treatment” value in test [2] is on record as “effectively desensitized 2871 receptor to subsequent treatment with either AP6A or AMP”. Further, the “agonist activity after initial AMP treatment” value in test [2] (second treatment five to six minutes after initial AMP dose) is reported as “retained agonist activity”.

Consider di-adenosine pentaphosphate [AP5A], for which, in test [1], the calcium mobilization response entry is “dose-dependent” and the 50% effective concentration (EC50) was 1200 to 1800 nM.

Take di-adenosine tetraphosphate [AP4A]: in test [1], the calcium mobilization response entry is “dose-dependent” and the 50% effective concentration (EC50) is 1800 to 2000 nM.

The record behind these values is patent publication US20050136472A1, “Methods for identification of ligands or modulators of 2871 receptor, a G-protein coupled receptor” (Millennium Pharmaceuticals, Inc., priority 2001, published 2005).
